According to US7598258B2, “Quinoline derivatives and quinazoline derivatives inhibiting autophosphorylation of macrophage colony stimulating factor receptor” (Kirin Beer Kabushiki Kaisha, priority 2002, dated 2009):

target: T1, mouse c-fms (Mus musculus, UniProt P09581); assay: Inhibition of c-fms autophosphorylation in macrophage-like cell line BAC-1.2F5 by M-CSF stimulation (ELISA); format: cell-based; conditions: BAC-1.2F5 cells, human recombinant M-CSF 50 ng/ml, read-out: c-fms autophosphorylation 50% inhibitory concentration (IC50)
T1 construct: Macrophage-like cell line BAC-1.2F5 which expresses c-fms as a M-CSF receptor on cell membranes; endogenous in cells; host or cells: BAC-1.2F5 mouse macrophage-like cell line
T1 sequence (P09581 20-977): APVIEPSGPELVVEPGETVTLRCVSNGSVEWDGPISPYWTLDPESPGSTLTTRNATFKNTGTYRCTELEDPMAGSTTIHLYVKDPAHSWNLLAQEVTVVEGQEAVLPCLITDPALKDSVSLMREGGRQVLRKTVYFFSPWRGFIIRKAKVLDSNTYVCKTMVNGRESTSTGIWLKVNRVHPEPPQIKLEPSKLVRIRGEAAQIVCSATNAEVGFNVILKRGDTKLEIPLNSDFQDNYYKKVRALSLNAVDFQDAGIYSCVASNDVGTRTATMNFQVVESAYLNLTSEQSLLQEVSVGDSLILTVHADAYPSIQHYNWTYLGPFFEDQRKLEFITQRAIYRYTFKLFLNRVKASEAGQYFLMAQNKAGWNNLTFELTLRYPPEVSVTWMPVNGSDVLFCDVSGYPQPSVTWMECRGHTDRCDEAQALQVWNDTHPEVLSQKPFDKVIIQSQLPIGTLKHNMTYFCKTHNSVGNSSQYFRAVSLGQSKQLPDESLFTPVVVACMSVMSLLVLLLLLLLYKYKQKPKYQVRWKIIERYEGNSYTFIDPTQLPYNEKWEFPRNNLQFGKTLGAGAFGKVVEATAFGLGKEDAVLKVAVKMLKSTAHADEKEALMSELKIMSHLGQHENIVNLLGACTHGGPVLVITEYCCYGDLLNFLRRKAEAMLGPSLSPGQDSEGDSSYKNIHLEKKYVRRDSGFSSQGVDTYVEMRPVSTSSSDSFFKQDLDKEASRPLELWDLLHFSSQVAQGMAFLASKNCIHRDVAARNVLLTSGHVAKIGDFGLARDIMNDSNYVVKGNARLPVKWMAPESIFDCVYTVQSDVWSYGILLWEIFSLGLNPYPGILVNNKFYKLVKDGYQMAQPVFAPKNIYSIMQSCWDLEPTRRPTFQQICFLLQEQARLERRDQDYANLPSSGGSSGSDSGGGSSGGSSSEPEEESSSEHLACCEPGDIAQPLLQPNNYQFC
In short: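 BAC-1.2F5 cells serum-starved (0.1% FCS) 12 h, preincubated with compound 1 h at 37° C, then stimulated 6 min with 50 ng/ml human recombinant M-CSF. Lysates captured on anti-phosphotyrosine plates, detected with anti-c-fms antiserum and peroxidase read-out at 450 nm. IC50 from inhibition normalised between ±M-CSF controls.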

SMILES	IC50 [nM]
COc1cc2nccc(Oc3ccc(NC(=O)N[C@@H](C)c4ccccc4OC)cc3)c2cc1OC [Example 51, N-{4-[(6,7-Dimethoxy-4-quinolyl)oxy]phenyl}-N′-[(1S)-1-(2-methoxyphenyl)ethyl]urea]	7.6
COc1cc2nccc(Oc3ccc(NC(=O)NC(C)c4ccc(F)cc4)cc3OC)c2cc1OC (centres unmarked) [Example 22, N-{4-[(6,7-Dimethoxy-4-quinolyl)oxy]-3-methoxyphenyl}-N′-[1-(4-fluorophenyl)ethyl]urea]	7.7
COc1cc2nccc(Oc3ccc(NC(=O)N[C@@H](C)c4nccs4)cc3OC)c2cc1OC [Example 81, N-{4-[(6,7-Dimethoxy-4-quinolyl)oxy]-3-methoxyphenyl}-N′-[(1S)-1-(1,3-thiazol-2-yl)ethyl]urea]	6.2

Other lines, results leading:

IC50 [nM]	SMILES
2.7	COc1ccc([C@H](C)NC(=O)Nc2ccc(Oc3ccnc4cc(OC)c(OC)cc34)cc2)cc1 [Example 53, N-{4-[(6,7-Dimethoxy-4-quinolyl)oxy]phenyl}-N′-[(1S)-1-(4-methoxyphenyl)ethyl]urea]
11.7	COc1cc2nccc(Oc3ccc(NC(=O)N[C@@H](C)c4ccc(F)cc4)cc3Cl)c2cc1OC [Example 11, N-{3-Chloro-4-[(6,7-dimethoxy-4-quinolyl)oxy]phenyl}-N′-[(1S)-1-(4-fluorophenyl)ethyl]urea]
